The supplement of paper PMC10307832

Experiments:
Assay in all cases: relative viability (nuclei count vs DMSO), 5 days (fraction); higher = more cells survive
Elesclomol = compound: CN(NC(=O)CC(=O)NN(C)C(=S)c1ccccc1)C(=S)c1ccccc1 [Elesclomol]
Method in brief: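 Five library-drug doses spaced by √10 were pinned onto vehicle-anchored 1536-well plates of lung cancer cell lines that had been kept overnight at 37 °C. Cells went 5 days without medium change, then were fixed, permeabilised and Hoechst-stained together, imaged at 4× and counted by MetaXpress. Viability is the ratio of treated-well to vehicle-well nuclei, taken as a median over plates. Plates required control CV below 25% and at least one doubling.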

Elesclomol + Olaparib = compound: CN(NC(=O)CC(=O)NN(C)C(=S)c1ccccc1)C(=S)c1ccccc1 [Elesclomol] + O=C(c1cc(Cc2n[nH]c(=O)c3ccccc23)ccc1F)N1CCN(C(=O)C2CC2)CC1 [Olaparib] (partner 8 µM)
Method in brief: (§1)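 Lung cancer cell lines, seeded in 1536-well plates, were treated the following day by pin tool with a single drug or with five library-drug doses (not always all listed) in √10 steps on top of a fixed anchor-drug dose. Cells were fixed and nuclei stained in one step after 5 days, and nuclei were counted. Relative viability is the nuclei count for treated wells divided by that for vehicle wells, reported as medians of duplicate plates.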

Elesclomol + Crizotinib = compound: CN(NC(=O)CC(=O)NN(C)C(=S)c1ccccc1)C(=S)c1ccccc1 [Elesclomol] + C[C@@H](Oc1cc(-c2cnn(C3CCNCC3)c2)cnc1N)c1c(Cl)ccc(F)c1Cl [Crizotinib] (partner 1 µM)
Method in brief: as §1

Elesclomol + Alpelisib = compound: CN(NC(=O)CC(=O)NN(C)C(=S)c1ccccc1)C(=S)c1ccccc1 [Elesclomol] + Cc1nc(NC(=O)N2CCC[C@H]2C(N)=O)sc1-c1ccnc(C(C)(C)C(F)(F)F)c1 [Alpelisib] (partner 2 µM)
Method in brief: as §1

Elesclomol + Dasatinib = compound: CN(NC(=O)CC(=O)NN(C)C(=S)c1ccccc1)C(=S)c1ccccc1 [Elesclomol] + Cc1nc(Nc2ncc(C(=O)Nc3c(C)cccc3Cl)s2)cc(N2CCN(CCO)CC2)n1 [Dasatinib] (partner 0.075 µM)
Method in brief: as §1

Cell Line | relative viability (Elesclomol; 0.003162 µM) | relative viability (Elesclomol; 0.01 µM) | relative viability (Elesclomol; 0.03162 µM) | relative viability (Elesclomol; 0.1 µM) | relative viability (Elesclomol + Olaparib; first compound 0.003162 µM) | relative viability (Elesclomol + Olaparib; first compound 0.01 µM) | relative viability (Elesclomol + Olaparib; first compound 0.03162 µM) | relative viability (Elesclomol + Olaparib; first compound 0.1 µM) | relative viability (Elesclomol + Crizotinib; first compound 0.003162 µM) | relative viability (Elesclomol + Crizotinib; first compound 0.03162 µM) | relative viability (Elesclomol + Crizotinib; first compound 0.1 µM) | relative viability (Elesclomol + Alpelisib; first compound 0.003162 µM) | relative viability (Elesclomol + Alpelisib; first compound 0.03162 µM) | relative viability (Elesclomol + Alpelisib; first compound 0.1 µM) | relative viability (Elesclomol + Dasatinib; first compound 0.003162 µM) | relative viability (Elesclomol + Dasatinib; first compound 0.01 µM) | relative viability (Elesclomol + Dasatinib; first compound 0.03162 µM) | relative viability (Elesclomol + Dasatinib; first compound 0.1 µM) | relative viability (Elesclomol + Crizotinib; first compound 0.01 µM) | relative viability (Elesclomol + Alpelisib; first compound 0.01 µM)
NCI-H23 | 1 | 0.566 | 0.786 | 0.128 | 0.3 | 0.267 | 0.187 | 0.0908 | 0.56 | 0.49 | 0.116 | 0.662 | 0.491 | 0.122 | 0.823 | 0.725 | 0.743 | 0.171 |  | 
NCI-H322M | 0.893 | 0.29 | 0.363 | 0.266 | 0.665 | 0.572 | 0.388 | 0.208 | 0.911 | 0.98 | 0.552 | 0.933 | 0.645 | 0.173 | 0.251 | 0.206 | 0.123 | 0.0962 |  | 
NCI-H358 | 0.752 | 0.225 | 0.215 | 0.196 | 0.758 | 0.346 | 0.107 | 0.138 | 0.215 | 0.204 | 0.171 | 0.43 | 0.166 | 0.142 | 0.0973 | 0.101 | 0.0734 | 0.0654 | 0.151 | 0.163
NCI-H441 | 1.06 | 0.945 | 0.55 | 0.179 | 0.48 | 0.602 | 0.311 | 0.148 | 0.836 | 0.286 | 0.113 | 0.701 | 0.233 | 0.0722 | 0.547 | 0.656 | 0.451 | 0.0877 | 0.461 | 0.624
NCI-H460 | 1.01 | 0.825 | 0.557 | 0.0845 | 0.421 | 0.251 | 0.194 | 0.0303 | 0.624 | 0.0112 | 0.0109 | 0.434 | 0.0128 | 0.0117 | 0.516 | 0.422 | 0.0534 | 0.0171 | 0.0306 | 0.0761
NCI-H520 | 1.03 | 0.87 | 0.584 | 0.134 | 0.333 | 0.32 | 0.152 | 0.0887 | 0.69 | 0.233 | 0.0848 | 0.884 | 0.563 | 0.0734 | 0.166 | 0.158 | 0.138 | 0.0789 | 0.713 | 0.667
NCI-H596 | 0.983 | 0.842 | 0.865 | 0.243 | 0.672 | 0.608 | 0.503 | 0.258 | 0.92 | 0.95 | 0.184 | 0.437 | 0.458 | 0.213 | 0.606 | 0.545 | 0.575 | 0.21 | 0.948 | 0.472
NCI-H647 | 1 | 0.617 | 0.377 | 0.062 | 0.547 | 0.357 | 0.128 | 0.0704 | 1.1 | 0.39 | 0.0391 | 1.12 | 0.245 | 0.017 | 0.172 | 0.142 | 0.0544 | 0.0326 | 0.813 | 0.998
NCI-H650 | 1 | 0.696 | 0.332 | 0.249 | 0.426 | 0.319 | 0.204 | 0.241 | 0.666 | 0.254 | 0.256 | 1.09 | 0.271 | 0.237 | 0.535 | 0.341 | 0.227 | 0.24 | 0.264 | 0.342
NCI-H661 | 0.91 | 0.807 | 0.374 | 0.298 | 0.702 | 0.464 | 0.271 | 0.186 | 0.991 | 0.361 | 0.283 | 0.619 | 0.2 | 0.234 | 0.869 | 0.477 | 0.223 | 0.177 | 0.619 | 0.387
NCI-H727 | 1.04 | 0.699 | 0.494 | 0.301 | 0.587 | 0.7 | 0.712 | 0.416 | 0.681 | 0.096 | 0.0428 | 0.545 | 0.117 | 0.0342 | 0.319 | 0.242 | 0.128 | 0.0864 | 0.453 | 0.258
NCI-H838 | 0.959 | 0.883 | 0.792 | 0.454 | 0.765 | 0.721 | 0.488 | 0.215 | 0.833 | 0.691 | 0.414 | 1.13 | 0.967 | 0.706 | 0.287 | 0.296 | 0.224 | 0.177 | 0.745 | 0.892
NCI-H1355 | 1.02 | 0.685 | 0.593 | 0.297 | 0.724 | 0.648 | 0.347 | 0.209 | 1.02 | 0.701 | 0.203 | 0.832 | 0.466 | 0.16 | 0.736 | 0.639 | 0.396 | 0.178 | 1.02 | 0.636
